Results taken from ChEMBL document CHEMBL3396993, “Inhibition of monoamine oxidase by indole-5,6-dicarbonitrile derivatives” (Bioorg Med Chem Lett, 2015).

Experiments:
[1] = target: T1, Amine oxidase [flavin-containing] A (Homo sapiens, UniProt P21397);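 further: recombinant human enzyme, activity followed as kynuramine conversion to 4-hydroxyquinoline, detected by spectrofluorometry, inhibition measured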
T1 sequence (P21397 whole entry): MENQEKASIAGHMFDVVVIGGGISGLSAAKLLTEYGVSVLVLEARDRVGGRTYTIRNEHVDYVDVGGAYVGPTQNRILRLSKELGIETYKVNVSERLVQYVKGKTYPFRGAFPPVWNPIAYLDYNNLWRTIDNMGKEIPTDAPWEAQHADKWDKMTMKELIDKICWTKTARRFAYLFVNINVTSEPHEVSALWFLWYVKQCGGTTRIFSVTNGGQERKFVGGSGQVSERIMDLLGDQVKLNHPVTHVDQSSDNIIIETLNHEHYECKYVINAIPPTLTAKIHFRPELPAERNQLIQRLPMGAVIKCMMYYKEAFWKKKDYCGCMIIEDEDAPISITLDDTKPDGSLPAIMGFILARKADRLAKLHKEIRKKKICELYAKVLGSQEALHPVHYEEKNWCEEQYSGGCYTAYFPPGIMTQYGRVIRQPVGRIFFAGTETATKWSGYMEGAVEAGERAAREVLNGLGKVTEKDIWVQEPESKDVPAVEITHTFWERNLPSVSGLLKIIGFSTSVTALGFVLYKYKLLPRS

[2] = target: T2, Amine oxidase [flavin-containing] B (Homo sapiens, UniProt P27338);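 further: recombinant enzyme, kynuramine substrate converted to 4-hydroxyquinoline, product quantified by spectrofluorometry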
T2 sequence (P27338 whole entry): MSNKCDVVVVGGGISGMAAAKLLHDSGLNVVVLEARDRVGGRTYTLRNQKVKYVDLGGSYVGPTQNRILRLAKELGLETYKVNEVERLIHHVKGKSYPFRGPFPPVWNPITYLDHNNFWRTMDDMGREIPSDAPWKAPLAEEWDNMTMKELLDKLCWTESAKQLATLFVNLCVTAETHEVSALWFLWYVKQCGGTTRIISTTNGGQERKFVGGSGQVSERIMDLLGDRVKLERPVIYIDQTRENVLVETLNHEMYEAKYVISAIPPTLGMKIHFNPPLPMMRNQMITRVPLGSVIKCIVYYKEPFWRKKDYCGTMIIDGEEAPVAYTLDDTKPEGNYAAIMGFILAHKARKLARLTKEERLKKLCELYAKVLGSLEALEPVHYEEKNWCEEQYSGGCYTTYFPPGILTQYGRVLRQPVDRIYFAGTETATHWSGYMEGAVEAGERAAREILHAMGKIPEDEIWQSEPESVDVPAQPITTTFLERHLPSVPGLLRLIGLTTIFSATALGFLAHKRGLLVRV

[3] = target: T1, Amine oxidase [flavin-containing] A; assay: Reversible inhibition of human recombinant MAO-A using kynuramine substrate assessed as enzyme activity recovered at 4 times of IC50 concentration incubated for 15 mins and subsequently dialyzed for 24 hrs relative to control in presence of pargyline; parameters: scale not given: the % may be the effect or the level left; conditions: 0.25 h
[4] = target: T1, Amine oxidase [flavin-containing] A; assay: Reversible inhibition of human recombinant MAO-A using kynuramine substrate assessed as enzyme activity recovered at 4 times of IC50 concentration incubated for 15 mins relative to control; parameters: scale not given: the % may be the effect or the level left; conditions: 0.25 h
[5] = target: T1, Amine oxidase [flavin-containing] A; assay: Reversible inhibition of human recombinant MAO-A using kynuramine substrate assessed as enzyme activity recovered at 4 times of IC50 concentration incubated for 15 mins and subsequently dialyzed for 24 hrs relative to control; parameters: scale not given: the % may be the effect or the level left; conditions: 0.25 h
[6] = target: T2, Amine oxidase [flavin-containing] B; assay: Reversible inhibition of human recombinant MAO-B using kynuramine substrate assessed as enzyme activity recovered at 4 times of IC50 concentration incubated for 15 mins and subsequently dialyzed for 24 hrs relative to control; parameters: scale not given: the % may be the effect or the level left; conditions: 0.25 h
[7] = target: T2, Amine oxidase [flavin-containing] B; assay: Inhibition of human recombinant MAO-B assessed as kynuramine substrate by Lineweaver-Burk plot analysis
[8] = target: T2, Amine oxidase [flavin-containing] B; assay: Reversible inhibition of human recombinant MAO-B using kynuramine substrate assessed as enzyme activity recovered at 4 times of IC50 concentration incubated for 15 mins and subsequently dialyzed for 24 hrs relative to control in presence of (R)-deprenyl; parameters: scale not given: the % may be the effect or the level left; conditions: 0.25 h
[9] = target: T2, Amine oxidase [flavin-containing] B; assay: Reversible inhibition of human recombinant MAO-B using kynuramine substrate assessed as enzyme activity recovered at 4 times of IC50 concentration incubated for 15 mins relative to control; parameters: scale not given: the % may be the effect or the level left; conditions: 0.25 h
[10] = target: T1, Amine oxidase [flavin-containing] A; assay: Inhibition of human recombinant MAO-A assessed as kynuramine substrate by Lineweaver-Burk plot analysis

IC50 [1] [nM]	IC50 [2] [nM]	SMILES	further results
4	20	COc1ccc(-c2[nH]c3cc(C#N)c(C#N)cc3c2Cl)cc1	–
14	17	Cc1ccc(-c2[nH]c3cc(C#N)c(C#N)cc3c2Cl)cc1	Activity [3]: 1.6%; Activity [4]: 43%; Activity [5]: 77%; Activity [6]: 78%; Ki [7]: 16 nM; Activity [8]: 3.1%; Activity [9]: 37%; Ki [10]: 18 nM
129	> 100000	COc1ccc(-c2c(Cl)c3cc(C#N)c(C#N)cc3n2C)cc1	–
121	144	N#Cc1cc2[nH]c(-c3ccccc3)c(Cl)c2cc1C#N	–
118	1270	N#Cc1cc2[nH]c(-c3cccs3)c(Cl)c2cc1C#N	–
142	> 100000	Cn1c(-c2ccccc2)c(Cl)c2cc(C#N)c(C#N)cc21	–
19400	> 100000	Cc1ccc(-c2c(Cl)c3cc(C#N)c(C#N)cc3n2C)cc1	–
35	> 100000	Cn1c(-c2cccs2)c(Cl)c2cc(C#N)c(C#N)cc21	–

Continued, compound first:

SMILES	IC50 [1] [nM]	IC50 [2] [nM]	further results
COc1ccc(-c2c(Br)c3cc(C#N)c(C#N)cc3n2OC)cc1	> 100000	> 100000	–
N#Cc1ccc(OCc2ccc(Br)cc2)cc1C#N	6.6	–	–
N#Cc1cc2c(Br)c(-c3ccccc3)n(O)c2cc1C#N	3480	11900	–
Cc1ccc(-c2c(Br)c3cc(C#N)c(C#N)cc3n2O)cc1	2190	2860	–
N#Cc1ccc(OC/C=C/c2ccccc2)cc1C#N	–	642	–
COc1ccc(-c2c(Br)c3cc(C#N)c(C#N)cc3n2O)cc1	726	1520	–
